# Reference: patent publication US20150157588A1, “Pharmaceutical Composition Comprising Amino-Phenyl-Acetic Acid Octadec-(Z)-9-enyl Ester and Use Thereof for Treating Tumors” (Yeda Research and Development Co., Ltd., priority 2012, published 2015)
# Tested on: freshly isolated mouse B cells
# Test: Spontaneous apoptosis by hypo-diploid nuclei PI staining, primary B cells
# Type: cell-based
# Conditions: 1 or 100 μg/ml in ethanol solution
# Protocol: Apoptosis was measured by FACS analysis with a hypo-diploid nuclei propidium iodide (PI) staining of freshly isolated mouse B cells treated with amino-phenyl-acetic acid octadec-(Z)-9-enyl ester in ethanol solution. FIGS. 5A-5C: L-12 cells treated with 0, 1 or 100 μg/ml of amino-phenyl-acetic acid octadec-(Z)-9-enyl ester, respectively; FIGS. 5D-5F: L-12 cells treated with 0, 1 or 100 μg/ml of the control reagent 4-methyl-piperazino-acetic acid ethyl ester, respectively; and FIGS. 5G-5I: L-12 cells treated with an ethanol volume corresponding to 0, 1 or to 100 μg/ml of amino-phenyl-acetic acid octadec-(Z)-9-enyl ester in ethanol solution, respectively.
# B or T-cell apoptosis was detected by flow cytometry. […] The cells were then subjected to flow cytometric analysis; for each sample 10,000 were collected and cell-cycle distribution was analyzed according to relative DNA content (PI staining). […] The cells were then collected, stained by APO-DIRECT TUNNEL kit (Phnxflow, CITY, Calif., USA); mitochondrial potential was measured by DePsipher (R&D Systems, Minneapolis, Minn.) according to the manufacturer's procedure. Intracellular caspase activity was measured by Apostat kit (R&D Systems), according to the manufacturer's procedure. The cells were analyzed by Flow cytometry using FACSort (Becton Dickinson) and CellQuest software (Becton Dickinson). […]
smiles,measurement,value
CCCCCCCC/C=C\CCCCCCCCOC(=O)C(N)c1ccccc1 (stereo not shown) [amino-phenyl-acetic acid octadec-(Z)-9-enyl ester],spontaneous apoptosis / cell-cycle of primary B cells,partially protected from the spontaneous apoptosis
